Experimental data reported in PMC11620503 (Antimicrobial Agents and Chemotherapy, 2024).
Converted amounts (≈) assume the structure as drawn. Like-named read-outs stand apart in the source and are kept apart here.

Columns and labels:
[1] = test system: MEM-nonsusceptible Enterobacterales; assay: MIC, broth microdilution; assay type: cell-based; conditions: MEM-nonsusceptible Enterobacterales (92), CDC AR Bank
[2] = test system: serine-carbapenemase-producing isolates (Enterobacterales); assay: MIC, broth microdilution; assay type: cell-based; conditions: Enterobacterales with serine-carbapenemases (61), CDC AR Bank
[3] = test system: 55 isolates of A. baumannii; assay: MIC, broth microdilution; assay type: cell-based, Acinetobacter baumannii; conditions: Acinetobacter baumannii (55), fixed concentration (μg/mL) in label
96 P. aeruginosa = assay: MIC, broth microdilution; assay type: cell-based, Pseudomonas aeruginosa; conditions: Pseudomonas aeruginosa (96)
[4] = test system: MEM-, imipenem/relebactam-, and ceftolozane/tazobactam-nonsusceptible P. aeruginosa; assay: MIC, broth microdilution; assay type: cell-based, Pseudomonas aeruginosa; conditions: for MIC50 / MIC90: Pseudomonas aeruginosa; for MIC50: read-out: MIC50; for MIC90: read-out: MIC90
[5] = test system: E. coli CDC-119 (NDM-1), PBP3 mutations; assay: MIC, broth microdilution; assay type: cell-based; conditions: Escherichia coli
[6] = test system: E. coli CDC-137 (NDM-6), PBP3 mutations; assay: MIC, broth microdilution; assay type: cell-based; conditions: Escherichia coli, fixed BLI concentration (μg/mL) in parentheses in label
[7] = test system: E. coli CDC-149 (NDM-7), PBP3 mutations; assay: MIC, broth microdilution; assay type: cell-based; conditions: Escherichia coli
[8] = test system: E. coli CDC-150 (NDM-5), PBP3 mutations; assay: MIC, broth microdilution; assay type: cell-based; conditions: Escherichia coli, fixed BLI concentration (μg/mL) in parentheses in label
[9] = test system: E. coli CDC-151 (NDM-5), PBP3 mutations; assay: MIC, broth microdilution; assay type: cell-based; conditions: Escherichia coli, fixed BLI concentration (μg/mL) in parentheses in label
[10] = test system: E. coli CDC-162 (NDM-7), PBP3 mutations; assay: MIC, broth microdilution; assay type: cell-based; conditions: Escherichia coli
[11] = test system: E. coli CDC-435 (NDM-1), PBP3 mutations; assay: MIC, broth microdilution; assay type: cell-based; conditions: Escherichia coli, fixed BLI concentration (μg/mL) in parentheses in label
[12] = test system: Enterobacterales (154), CDC AR Bank; assay: MIC, broth microdilution; assay type: cell-based
[13] = test system: MEM-nonsusceptible Enterobacterales with serine-carbapenemases; assay: MIC, broth microdilution; assay type: cell-based; conditions: MEM-nonsusceptible Enterobacterales with serine-carbapenemases (42), CDC AR Bank
[14] = test system: MEM-nonsusceptible Enterobacterales with metallo-carbapenemases; assay: MIC, broth microdilution; assay type: cell-based; conditions: MEM-nonsusceptible Enterobacterales with metallo-carbapenemases (41), CDC AR Bank
[15] = test system: Cefepime/taniborbactam-nonsusceptible Enterobacterales with metallo-carbapenemases (25); assay: MIC, broth microdilution; assay type: cell-based; conditions: CDC AR Bank
CTX-M-14 = CTX-M-14 (Escherichia coli, UniProt Q9L5C7); assay: Ki app determination (Waley's method)
CTX-M-15 = CTX-M-15 (Escherichia coli, UniProt Q9EXV5); assay: Ki app determination (Waley's method)
CTX-M-27 = CTX-M-27 (Escherichia coli, UniProt Q840M4); assay: Ki app determination (Waley's method)
SHV-2 = SHV-2 (Klebsiella pneumoniae, UniProt P0A9Z8); assay: Ki app determination (Waley's method)
SHV-5 = SHV-5 (Klebsiella pneumoniae, UniProt P0A3M1); assay: Ki app determination (Waley's method)
SHV-12 = SHV-12 (Klebsiella pneumoniae, UniProt P0A3M1, L31Q); assay: Ki app determination (Waley's method)
KPC-2 = KPC-2 (Klebsiella pneumoniae, UniProt Q9F663); assay: Ki app determination (Waley's method)
KPC-3 = KPC-3 (Klebsiella pneumoniae, UniProt Q9F663, H272Y); assay: Ki app determination (Waley's method)
KPC-38 = KPC-38 (Klebsiella pneumoniae, UniProt Q9F663); assay: Ki app determination (Waley's method); conditions: read-out: Ki app, means from three independent studies
OXA-48 = OXA-48 (Klebsiella pneumoniae, UniProt Q6XEC0); assay: Ki app determination (Waley's method)
OXA-23 = OXA-23 (Acinetobacter baumannii, UniProt Q9L4P2); assay: Ki app determination (Waley's method)
OXA-24 = OXA-24 (Acinetobacter baumannii, UniProt Q8RLA6); assay: Ki app determination (Waley's method)
OXA-65 = OXA-65 (Acinetobacter baumannii, UniProt Q58XD3); assay: Ki app determination (Waley's method)
OXA-66 = OXA-66 (Acinetobacter baumannii, UniProt Q58XD2); assay: Ki app determination (Waley's method)
OXA-72 = OXA-72 (Acinetobacter baumannii, UniProt Q5XQU0); assay: Ki app determination (Waley's method)
VIM-1 = VIM-1 (Pseudomonas aeruginosa, UniProt A0A0F7KYQ8); assay: Ki app determination (Waley's method)
VIM-2 = VIM-2 (Escherichia coli, UniProt Q5U7L7); assay: Ki app determination (Waley's method)
IMP-1 = IMP-1 (Serratia marcescens, UniProt P52699); assay: Ki app determination (Waley's method)
IMP-6 = IMP-6 (Serratia marcescens, UniProt P52699, S214G); assay: Ki app determination (Waley's method)
NDM-1 = NDM-1 (Klebsiella pneumoniae, UniProt C7C422); assay: Ki app determination (Waley's method)
NDM-4 = NDM-4 (Klebsiella pneumoniae, UniProt C7C422, M154L); assay: Ki app determination (Waley's method)
NDM-5 = NDM-5 (Klebsiella pneumoniae, UniProt C7C422, M154L/V88L); assay: Ki app determination (Waley's method)
NDM-6 = NDM-6 (Klebsiella pneumoniae, UniProt C7C422, A233V); assay: Ki app determination (Waley's method)
NDM-7 = NDM-7 (Klebsiella pneumoniae, UniProt C7C422, D130N/M154L); assay: Ki app determination (Waley's method)
[16] = CLSI breakpoints, marked c: breakpoints for β-lactam alone
[17] = fixed concentration (μg/mL) in label, read-out: MIC50
[18] = fixed concentration (μg/mL) in label, read-out: MIC90
[19] = Imipenem/relebactam-nonsusceptible Pseudomonas aeruginosa (43), CLSI breakpoints, marked c: breakpoints for β-lactam alone
[20] = MEM-nonsusceptible Pseudomonas aeruginosa (76), CLSI breakpoints, marked c: breakpoints for β-lactam alone
[21] = Imipenem/relebactam-nonsusceptible Pseudomonas aeruginosa (43), fixed concentration (μg/mL) in label
[22] = MEM-nonsusceptible Pseudomonas aeruginosa (76), fixed concentration (μg/mL) in label
[23] = fixed concentration (μg/mL) in label

## C[C@H]1[C@H](NC(=O)/C(=N\OC(C)(C)C(=O)O)c2csc(N)n2)C(=O)N1S(=O)(=O)O [ATM, aztreonam]
[1]; [16]
  CLSI MIC interpretation I (intermediate): 1.1%
  CLSI MIC interpretation R (resistant): 90.2%
  CLSI MIC interpretation S (susceptible): 8.7%
[1]; [17]
  MIC50: > 64 µg/mL
[1]; [18]
  MIC90: > 64 µg/mL
[2]; [16]
  CLSI MIC interpretation I (intermediate): 3.3%
  CLSI MIC interpretation R (resistant): 85.2%
  CLSI MIC interpretation S (susceptible): 11.5%
[2]; [17]
  MIC50: > 64 µg/mL
[2]; [18]
  MIC90: > 64 µg/mL
[3]; read-out: MIC50
  MIC50: 64 µg/mL (≈ 147 µM)
[3]; read-out: MIC90
  MIC90: > 64 µg/mL
96 P. aeruginosa; [16]
  CLSI MIC interpretation R (resistant): 47.9%
  CLSI MIC interpretation S (susceptible): 39.6%
96 P. aeruginosa; [17]
  MIC50: 16 µg/mL (≈ 36.7 µM)
96 P. aeruginosa; [18]
  MIC90: > 64 µg/mL
[4]; I, intermediate (including susceptible dose-dependent), CLSI breakpoints, last subgroup of Table 2
  CLSI MIC interpretation (%) I: 8.9%
[4]; [19]
  CLSI MIC interpretation I (intermediate): 9.3%
  CLSI MIC interpretation R (resistant): 60.5%
  CLSI MIC interpretation S (susceptible): 30.2%
[4]; [20]
  CLSI MIC interpretation R (resistant): 56.6%
  CLSI MIC interpretation S (susceptible): 30.3%
[4]; [21]
  MIC50: 32 µg/mL
  MIC90: > 64 µg/mL
[4]; [22]
  MIC50: 32 µg/mL (≈ 73.5 µM)
  MIC90: > 64 µg/mL
[4]; Table 2, broth microdilution
  MIC50: 32 µg/mL (≈ 73.5 µM)
  MIC90: > 64 µg/mL
[4]; R, resistant, CLSI breakpoints, last subgroup of Table 2
  CLSI MIC interpretation (%) R: 62.2%
[4]; S, susceptible, CLSI breakpoints, last subgroup of Table 2
  CLSI MIC interpretation (%) S: 28.9%
[5]
  MIC: > 64 µg/mL
[6]
  MIC: > 64 µg/mL
[7]
  MIC: 0.5 µg/mL (≈ 1.15 µM)
[8]
  MIC: 32 µg/mL (≈ 73.5 µM)
[9]
  MIC: 32 µg/mL (≈ 73.5 µM)
[10]
  MIC: > 64 µg/mL
[11]
  MIC: > 64 µg/mL
[12]; [16]
  CLSI MIC interpretation I (intermediate): 2.6%
  CLSI MIC interpretation R (resistant): 80.5%
  CLSI MIC interpretation S (susceptible): 16.9%
[12]; [23]
  MIC50: > 64 µg/mL
  MIC90: > 64 µg/mL
[13]; [16]
  CLSI MIC interpretation I (intermediate): 2.4%
  CLSI MIC interpretation R (resistant): 92.9%
  CLSI MIC interpretation S (susceptible): 4.8%
[13]; [17]
  MIC50: > 64 µg/mL
[13]; [18]
  MIC90: > 64 µg/mL
[14]; [16]
  CLSI MIC interpretation I (intermediate): 0%
  CLSI MIC interpretation R (resistant): 85.4%
  CLSI MIC interpretation S (susceptible): 14.6%
[14]; [17]
  MIC50: > 64 µg/mL
[14]; [18]
  MIC90: > 64 µg/mL
[15]; [16]
  CLSI MIC interpretation I (intermediate): 0%
  CLSI MIC interpretation R (resistant): 96%
  CLSI MIC interpretation S (susceptible): 4%
[15]; [23]
  MIC50: > 64 µg/mL
  MIC90: > 64 µg/mL

## O=C(O)C[C@@H]1CC[C@H](NC(=O)Cc2cccs2)B(O)O1 [Vaborbactam, vaborbactam]
CTX-M-14
  Ki: 0.392 ± 0.0203 µM
CTX-M-15
  Ki: 0.0781 ± 0.00663 µM
CTX-M-27
  Ki: 0.351 ± 0.0287 µM
SHV-2
  Ki: > 100 µM
SHV-5
  Ki: 1.42 µM
SHV-12
  Ki: 0.755 ± 0.103 µM
KPC-2
  Ki: 0.0637 ± 0.0249 µM
KPC-3
  Ki: 0.0883 ± 0.0303 µM
KPC-38
  Ki: 0.0483 ± 0.0132 µM
OXA-48
  Ki: > 100 µM
OXA-23
  Ki: > 100 µM
OXA-24
  Ki: > 100 µM
OXA-65
  Ki: > 100 µM
OXA-66
  Ki: > 100 µM
OXA-72
  Ki: > 100 µM
VIM-1
  Ki: > 100 µM
VIM-2
  Ki: > 100 µM
IMP-1
  Ki: > 100 µM
IMP-6
  Ki: > 100 µM
NDM-1
  Ki: > 100 µM
NDM-4
  Ki: > 100 µM
NDM-5
  Ki: > 100 µM
NDM-6
  Ki: > 100 µM
NDM-7
  Ki: > 100 µM
